Measurements published in US20190008897A1, “COMPOSITIONS AND METHODS FOR PRODUCING PRO-INFLAMMATORY MACROPHAGES” (UNIVERSITY OF WASHINGTON, priority 2015, published 2019).

B1: TNFα: recombinant mouse TNFα purchased from Sigma (protein)
chain: LRSSSQNSSDKPVAHVVANHQVEEQLEWLSQRANALLANGMDLKDNQLVVPADGLYLVYSQVLFKGQGCPDYVLLTHTVSRFAISYQEKVNLLSAVKSPCPKDTPEGAELKPWYEPIYLGGVFQLEKGDQLSAEVNLPKYLDFAESGQVYFGVIAL
B2: IFN-γ: cytokine IFN-γ used to treat MΦ-cTLR4 cells (protein, UniProt P01580 23-155, looked up)
Interferon gamma: HGTVIESLESLNNYFNSSGIDVEEKSLFLDIWRNWQKDGDMKILQSQIISFYLRLFEVLKDNQAISNNISVIESHLITTFFSNSKAKKDAFMSIAKFEVNNPQVQRQAFNELIRVVHQLLPESSLRKRKRSRC

How the values were obtained:
[1] = test system: MΦ-cTLR4 cells; experiment: Cytokine profile (ELISA of supernatants) of MΦ-cTLR4 cells; assay type: cell-based, murine
Experimental: We tested IL-6 and TNFα concentrations in supernatants of transduced RAW264.7 cells in vitro. Briefly, MΦ-cTLR4 cells (1×106) were plated in each well of a 6-well plate and treated with vehicle (100% EtOH), LPS (100 ng/mL), CID drug (50 nM), or left untreated in DMEM without serum. Supernatants were collected and tested using the mouse IL-6 ELISA Ready-SET-Go! and the mouse TNFα ELISA Ready-SET-Go! Kits (eBioscience) according to the manufacturer's instructions. Plates were read at 450 nm with a 570 nm wavelength subtraction, normalized to standard solutions, and concentrations (pg/mL) were calculated.

[2] = test system: MΦ-cTLR4 cells; experiment: Western blot for iNOS in MΦ-cTLR4 cells; assay type: cell-based, murine; details: 24 h treatment; CID 50 nM, LPS 100 ng/mL
Experimental: (§1) Protein from RAW264.7, MΦ-T2A (vector control cells), and MΦ-cTLR4 cell monolayers were extracted by lysis in Laemmli buffer containing 1× Halt Protease Inhibitor cocktail (Thermo Scientific). Following lysis, samples were boiled and protein concentration was determined by performing a BCA assay from Thermo Scientific. Samples (10-30 μg of lysates) were run on 4-20% Mini-PROTEAN® TGX precast polyacrylamide gels (Bio-Rad). Protein from gels were transferred onto PVDF membranes and probed with the appropriate primary antibody overnight. Membranes were washed between each antibody incubation and subsequently probed with the appropriate HRP-conjugated secondary antibody (Life Technologies). The Clarity Western ECL Substrate (Bio-Rad) was used to detect bands.

[3] = test system: ERK1/2 phosphorylation in MΦ-cTLR4 cells; experiment: Western blot for p-ERK and total ERK (MyD88-dependent pathway); assay type: cell-based, murine; details: 0 to 60 minutes; CID 50 nM, LPS 100 ng/mL
Experimental: as §1
Following LPS stimulation and subsequent TNFα production, the TLR4 pathway leads to activation of NF-κB and the three MAPK pathways through the MyD88-dependent pathway. Both NF-κB and MAPK pathways directly control the transcription of the IL-6 and iNOS inflammatory genes, as well as control the mRNA stability of those transcripts. For the activated MΦ-cTLR4 cells, ERK1/2 phosphorylation is expected if the MyD88 dependent pathway and subsequent downstream TRAF6 activation has occurred. […]

[4] = test system: NF-κB promoter in MΦ-cTLR4 cells; experiment: Dual-Luciferase NF-κB reporter assay; assay type: cell-based, murine; details: CID 50 nM, 4 hours; compared to vehicle
Experimental: Two hundred thousand cells/well were seeded in 24-well plates. The following day each well was transfected with a total of 0.8 μg plasmid DNA, which consisted of a 20:1 ratio of pBllX-LUC (NFκB reporter construct):pRL (Renilla luciferase construct). The promoterless pGL4.10 vector was also transfected in a 20:1 ratio of pGL4.10:pRL, as a control. Transfections of each well were performed with 2 μL Lipofectamine 2000 (Invitrogen). The following morning transfection reagents were replaced with fresh serum-free medium and treated with either vehicle (100% EtOH) or CID drug (50 nM) for 4 hours. Cell lysate was harvested and luciferase activity was measured using a Dual-Luciferase® reporter assay kit (Promega) according to manufacturer's instructions. All groups were normalized to Renilla luciferase.

[5] = test system: IRF3 phosphorylation in MΦ-cTLR4 cells; experiment: Western blot for p-IRF3 and total IRF3 (MyD88-independent pathway); assay type: cell-based, murine; details: CID 50 nM, LPS 100 ng/mL; compared to vehicle
Experimental: as §1
To determine if the MΦ-cTLR4 cells were signaling through the MyD88-independent pathway, we tested for phosphorylated IRF3. […] The IRF3 phosphorylation of the CID- and LPS-treated MΦ-cTLR4 cells starts to decrease following the 2 hour timepoint and subsequently reaches similar levels as vehicle at the 6 and 12 hour timepoints.

[6] = test system: bEnd.3 endothelial cells; experiment: Endothelial cell activation by MΦ-cTLR4 conditioned media (flow cytometry for VCAM-1 and ICAM-1); assay type: cell-based, mouse; details: media from MΦ-cTLR4 treated 6 h (TNFα 20 ng/mL, CID 50 nM); bEnd.3 incubated 12 h
Experimental: MΦ-cTRL4 conditioned media, following a 6 hour treatment in 6-well plates (1×10^6 cells/well), was transferred to plated bEnd.3 cells in a 12-well plate (0.2×10^6 cells/well). Before media transfer, TNFα neutralizing and IgG isotype antibody (1 μg/mL) were incubated in media for 15 minutes. Media was then added to bEnd.3 cells for 12 hours. Following incubation, bEnd.3 cells were trypsinized and stained for ICAM-1 and VCAM-1. Cell cytometry was performed on a FACSCanto II Cell Analyzer (BD Biosciences) equipped with 488 nm and 647 nm lasers. Typically, 10,000 cells were analyzed per sample. Experiments were repeated at least three times. Non-specific staining was evaluated using a monoclonal antibody for IgG2b and IgG2a (eBioscience).

[7] = test system: MΦ-cTLR4 cells co-cultured with rat aortic ECs (RAECs); experiment: Co-culture tube formation (angiogenesis) assay; assay type: cell-based; details: CID 50 nM or LPS 100 ng/mL added to the medium
Excerpt: Untreated MΦ-cTLR4 cells co-cultured with rat aortic ECs (RAECs), with no added factors to the medium, had the least amount of isolated segments, the least amount of branches, and the most amount of branching interval.

[8] = test system: MΦ-cTLR4 cells in Matrigel plug; experiment: In vivo Matrigel plug with MΦ-cTLR4 cells; set-up: species or system BALB/c mice; details: 14 day; CID drug 2 mg/kg intraperitoneal every other day; s.c. Matrigel plug
Experimental: Four groups of 4 week old female BALB/c mice (total of 16 mice) were used in this in vivo study. The four groups consisted of: 7 day non-treated mice, 7 day CID-treated mice, 14 day non-treated mice, and 14 day CID-treated mice. At day of injection, pre-plated MΦ-cTLR4 cells were lifted off and counted. 0.5×10^6 cells were s.c. injected mixed in with Matrigel into the right back dorsal area of the mouse. Before placing mouse back in cage, mice were injected with the first intraperitoneal CID drug dose (2 mg/kg mouse weight). Treatment groups were given CID drug injections every other day during the course of the experiment (FIG. 20).

[9] = test system: MΦ-cTLR4 cells; experiment: ELISA for VEGF-A in MΦ-cTLR4 medium; assay type: cell-based, murine; details: for VEGF expression compared to controls: single treatment (FIG. 22A)
Experimental: In order to determine if the MΦ-cTLR4 cells were expressing the key angiogenic molecule VEGF-A, an ELISA was performed to test for VEGF-A levels in MΦ-cTLR4 medium following various treatments (FIG. 22A). […] Since studies have shown human and rat MΦs express increased VEGF with IFN-γ treatment, the response was also tested with this factor.

[10] = 24 h treatment, CID drug 50 nM, compared to uninduced controls

Molecule | time to upregulation of key pro-inflammatory markers after CID drug addition [1] [h] | IL-6 levels [1, 10] | TNFα levels [1, 10] | time IL-6 levels stayed activated ([1]; constant CID drug (50 nM) in media) [h] | time elevated levels of TNFα, IL-6 and iNOS are maintained ([1]; constant CID drug (50 nM) in media, changed every 24 h) | dose producing the maximum activation of MΦ-cTLR4 cells (IL-6 ELISA) ([1]; titration 50 nM-250 nM, 24 h treatment) | iNOS expression (130 kDa band) [2] | ERK1/2 phosphorylation (p-ERK/total ERK ratio relative to zero timepoint) [3] | NF-κB promoter activation (luciferase activity normalized to Renilla) [4] | time of activation peak of p-IRF3/total IRF3 ratio [5] [h] | EC positive for ICAM-1 [6] [%] | EC positive for VCAM-1 [6] [%] | branching interval vs untreated co-cultures [7] | isolated segments [7] | number of branches vs untreated co-cultures [7] | number of master segments compared to the control [7] | co-localization of GFP MΦ-cTLR4 cells and iNOS regions in plug [8] | VEGF expression compared to controls [9] | VEGF compared to the control, IFN-γ alone or in cocktail ([9]; IFN-γ alone or cocktail with CID or LPS (FIG. 22B))
CC[C@H](C(=O)N1CCCC[C@H]1C(=O)O[C@H](CCc1ccc(OC)c(OC)c1)c1cccc(OCC(=O)NCC(CNC(=O)COc2cccc([C@@H](CCc3ccc(OC)c(OC)c3)OC(=O)[C@@H]3CCCCN3C(=O)[C@@H](CC)c3cc(OC)c(OC)c(OC)c3)c2)CN(C)C)c1)c1cc(OC)c(OC)c(OC)c1 [CID drug, AP20187] | 6 | increased | increased | 72 | at least 48 hours | at least 50 nM | much lower intensity than the LPS-treated cells | upregulation of ERK1/2 phosphorylation at the 5 minute timepoint | increased NF-κB promoter activation | 2 | 64.4 | 93.7 | smaller branching interval | slightly more isolated segments than the untreated group | much more branches | not significantly different | occurrences of GFP/iNOS co-localization | significantly decreased amounts of VEGF | 
lipopolysaccharides [LPS] |  |  |  |  |  |  | substantial increase in iNOS expression |  |  | 2 |  |  | smaller branching interval | highest number of isolated segments | much more branches | not significantly different |  | significantly decreased amounts of VEGF | 
B1 |  |  |  |  |  |  |  |  |  |  | 57.2 | 93.5 |  |  |  |  |  |  | 
B2 |  |  |  |  |  |  |  |  |  |  |  |  |  |  |  |  |  |  | significant decrease in VEGF
